Reference: patent US20240424010A1, “NICOTINAMIDE RIBOSIDE TRIOLEATES CHLORIDE, COMPOSITIONS CONTAINING THIS COMPOUND, AND METHODS OF MAKING AND USING THIS COMPOUND” (SOCIETE DES PRODUITS NESTLE S.A., priority 2021, published 2024)

What was measured:
[1] = Stability of NRTOCl and NRCl in DI water at 35° C. for 28 days (released nicotinamide by HPLC); format: physicochemical
Description: Although NRTOCl is a quaternary ammonium salt, it was not dissolved in water due to the existence of three groups of oleate fatty ester in its structure. Therefore, for the stability study of NRTOCl, this compound was dispersed in DI water using 1% ethanol as a cosolvent. For this purpose, 15 mg of NRTOCl was dissolved in 0.15 ml of ethanol (1%) and then 14.85 ml of DI water was added to the mixture and gently shaken. […] Although the average size of NRTOCl in this sample was 192 nm, the images of TEM disclosed smaller particles with around 50 nm and oval and spherical shapes with aspect ratio close to unity (FIGS. 10A-10C). In the nanoparticles, the NRTOCl structures are stacked on top of each other layer-by-layer. The highly positive charge of NRTO makes the nanoparticles stable in the aqueous phase. After dispersion of NRTOCl in DI water, NRCl was dissolved in DI water, and the stability of these samples were studied at 35° C. for 28 days (FIG. 11). The concentration of each sample was 1000 ppm. As during the hydrolysis reaction of NRTO and NR, both of these compounds released nicotinamide (FIG. 12), and by measuring the released amount of nicotinamide in each sample with HPLC, the remaining amounts of NRTO and NR in each sample were calculated. During this study, any release of NR from NRTO sample was not detected. It signifies that the heavy ester groups in NRTO sample are not hydrolyzed during the time of stability study. Because this study was performed in DI water and the conditions were mild, the NRTO was hydrolyzed from its N-glycoside bond.

[2] = Particle size, zeta-potential (dynamic light scattering) and TEM of NRTOCl dispersion and emulsions; format: physicochemical
Description: The particle size distribution, mean particle diameter (Zeta average size) and zeta-potential of NRTOCl in DI water were measured by using a commercial dynamic light-scattering device (Nano-ZS, Malvern Instruments, Worcestershire, UK). Tecnai F20 TEM/STEM transmission electron microscope (200 kV) was used for characterizing the structure and morphology of prepared NRTOCl nanoparticles. Although NRTOCl is a quaternary ammonium salt, it was not dissolved in water due to the existence of three groups of oleate fatty ester in its structure. Therefore, for the stability study of NRTOCl, this compound was dispersed in DI water using 1% ethanol as a cosolvent. For this purpose, 15 mg of NRTOCl was dissolved in 0.15 ml of ethanol (1%) and then 14.85 ml of DI water was added to the mixture and gently shaken. […] Although the average size of NRTOCl in this sample was 192 nm, the images of TEM disclosed smaller particles with around 50 nm and oval and spherical shapes with aspect ratio close to unity (FIGS. 10A-10C). In the nanoparticles, the NRTOCl structures are stacked on top of each other layer-by-layer. The highly positive charge of NRTO makes the nanoparticles stable in the aqueous phase. […] The total oil phase in these emulsions were 3.2 wt. %, and the concentration of NRTOCl in total volume of each emulsion (15 mL) was 4.4 mM. In the emulsions that used Na-caseinate as an emulsifier, NaN3 (0.01 wt. %) was added to prevent the growth of bacteria. […] An NRTO in canola oil-in-water emulsion was also prepared, using 2 wt. % Tween 80 as an emulsifier in DI water (Tween emulsion). […] As expected by using Tween 80 as a neutral emulsifier, the positive charge of NRTO droplets was almost intact in the emulsion.

[3] = NRTOCl dispersed in DI water with 1% ethanol, 1,000 ppm

- release of NR from NRTO sample (ester hydrolysis) during stability study ([1]; DI water): not detected
- remaining amount after 28 days ([1]; DI water, 1000 ppm, 28 days): 53.3%
- times more stable than NRCl in water ([1]; 28 days): 88 times
- times more stable than NRCl in water ([1]; 28 days, listed as NRTO): more than 88 times
- particle size (average size) [2, 3]: 192 nm
- zeta potential [2, 3]: +65 mV
- particle size by TEM ([2]; NRTOCl dispersed in DI water, TEM images): around 50 nm
Compound: CCCCCCCC/C=C\CCCCCCCC(=O)OC[C@H]1O[C@@H]([n+]2cccc(C(N)=O)c2)[C@H](OC(=O)CCCCCCC/C=C\CCCCCCCC)[C@@H]1OC(=O)CCCCCCC/C=C\CCCCCCCC.[Cl-] [NRTOCl, nicotinamide riboside trioleates chloride]
